Each compound was assayed against LMPTP-A (Low Molecular Weight Protein Tyrosine Phosphatase-A) enzyme (Homo sapiens (Human), UniProt P24666) (assay: LMPTP primary screening / LMPTP (OMFP) enzyme inhibition assay, fluorescence intensity). Settings: LMPTP-A, OMFP substrate, method of Example 2; read-out: IC50.
Format: biochemical
Description: This assay attempts to identify inhibitors of the LMPTP-A (Low Molecular Weight Protein Tyrosine Phosphatase-A) enzyme. It is run in 1536-well format and is measured via fluorescence intensity.
A listing of materials is provided: • Item, source, catalog no. • LMPTP-A Enzyme Stock Solution (4.22 mg/ml or 206.8 μM), SBMRI Protein Facility, • N/A • OMFP, Sigma, M2629-100MG • Bis-Tris pH 6.0, Fisher Sci, BP301-100 • Triton-X 100, Sigma, T9284 • DTT, Sigma, D9779 • Mol. Grade Water, Mediatech, Inc., 46-000-CM • 1536-well black High base opaque bottom plate, Nexus Biosystems, 00019120
Final assay conditions are: • 0.625 nM LMPTP-A Enzyme • 400 μM OMFP • 50 mM Bis-Tris pH 6.0 • 1 mM DTT • 0.01% Triton-X 100 • 20 μM test compound • 3% DMSO (2% from substrate and 1% from compounds) • 6 μL reaction volume • 50 minutes incubation at room temp
Assay Procedure • 1. Prepare Reagents as described in section F. Recipe. • 2. Using LabCyte Echo, transfer 60 nL from 2 mM test compound source plate into assay plate Col. 5-48 (final concentration of test compounds is 20 μM). 60 nL of DMSO should be transferred to col. 1-4 for positive and negative control wells. • 3. Spin plates at 1000 rpm for 1 minute in centrifuge. • 4. […] Using the Bioraptr, add 3 μL/well of enzyme solution to col. 3-48. • 6. Using the Bioraptr, add 3 μL/well of substrate solution to col. 1-48. • 7. Spin plates at 1000 rpm for 1 minute in centrifuge. • 8. Incubate plates in the dark at room temperature for 50 minutes. • 9. Read plates on PerkinElmer Viewlux using a FI protocol.

LMPTP-A (Low Molecular Weight Protein Tyrosine Phosphatase-A) enzyme, sequence (P24666 whole entry): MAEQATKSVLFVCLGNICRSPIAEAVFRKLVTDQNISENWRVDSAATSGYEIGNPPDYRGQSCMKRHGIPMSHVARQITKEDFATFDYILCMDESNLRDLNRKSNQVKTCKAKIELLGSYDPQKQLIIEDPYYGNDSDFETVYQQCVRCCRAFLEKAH

IC50 [µM]	Compound
0.801 to 5	[2-(3,5-dichlorophenyl)(4-quinolyl)](3-piperidylpropyl)amine [Compound I170]
0.801 to 5	CN(C)Cc1cc(CO)cc(Nc2cc(-c3cccc(Cl)c3)nc3ccccc23)c1 [Compound I13, (5-[(dimethylamino)methyl]-3-{[2-(3-chlorophenyl)(4-quinolyl)]amino}phenyl)methan-1-ol]
> 5	c1ccc(-c2cc(NCCCN3CCOCC3)c3ccccc3n2)cc1 [Compound I179, (3-morpholin-4-ylpropyl)(2-phenyl(4-quinolyl))amine]
0.801 to 5	Cc1cc(-c2cc(NCCCN3CCCCC3)c3ccccc3n2)cnc1C#N [Compound I83]
0.801 to 5	CC(=O)Nc1ccc(-c2cc(NCCCN3CCCCC3)c3ccccc3n2)cc1F [Compound I232]
0.801 to 5	FC(F)(F)c1ccccc1-c1cc(NCCCN2CCCCC2)c2ccccc2n1 [Compound G1, (3-piperidin-1-yl-propyl)-[2-(2-trifluoromethyl-phenyl)-quinolin-4-yl]-amine]
0.801 to 5	Clc1cc(-c2cc(NCCCN3CCCCC3)c3ccccc3n2)ccn1 [Compound I102]
0.801 to 5	(2-morpholin-4-ylethyl)(2-phenyl(4-quinolyl))amine [Compound I180]
> 5	[2-(2,6-dichlorophenyl)(4-quinolyl)](3-piperidylpropyl)amine [Compound I100]
> 5	CCN1CCN(Cc2ccc(CNc3cc(-c4ccc(C(N)=O)cc4)nc4ccccc34)cc2)CC1 [Compound I214, 4-{4-[({4-[(4-ethylpiperazinyl)methyl]phenyl}methyl)amino]-2-quinolyl}benzamide]
> 5	CN(C)c1cc(-c2cnn(C)c2)nc2ccccc12 [Compound G19, Dimethyl[2-(1-methylpyrazol-4-yl)(4-quinolyl)]amine]
0.801 to 5	CCOc1ccc(C(F)(F)F)c(-c2cc(NCCCN3CCCCC3)c3ccccc3n2)c1 [Compound I105]
0.801 to 5	Cc1nc2ccc(-c3cc(NCCCN4CCCCC4)c4ccccc4n3)cc2s1 [Compound I248]
0.801 to 5	CCNC(=O)c1ccc(-c2cc(NCCCN3CCCCC3)c3ccccc3n2)cc1F [Compound I229]
0.801 to 5	CN(C)c1cc(-c2ccc(OC(F)(F)F)cc2)nc2ccccc12 [Compound G5, N,N-dimethyl-2-(4-(trifluoromethoxy)phenyl)quinolin-4-amine]
> 5	FC(F)(F)c1cc(-c2cc(Nc3ccc(CN4CCCCC4)cc3)c3ccccc3n2)cc(C(F)(F)F)c1 [Compound I43, {2-[3,5-bis(trifluoromethyl)phenyl](4-quinolyl)}[4-(piperidylmethyl)phenyl]amine]
0.2 to 0.8	COc1ccc(-c2cc(Nc3ccc(OC)nc3)c3ccccc3n2)cc1 [Compound G48, (6-methoxy(3-pyridyl))[2-(4-methoxyphenyl)(4-quinolyl)]amine]
> 5	CN(C)Cc1ccc(Nc2cc(-c3cc(C(F)(F)F)cc(C(F)(F)F)c3)nc3ccccc23)cc1 [Compound I47, {[4-({2-[3,5-bis(trifluoromethyl)phenyl](4-quinolyl)}amino)phenyl]methyl}dimethylamine]
0.2 to 0.8	{2-[2,4-bis(trifluoromethyl)phenyl](4-quinolyl)}(3-piperidylpropyl)amine [Compound I168]
0.801 to 5	CS(=O)(=O)c1ccc(-c2cc(NCCCN3CCCCC3)c3ccccc3n2)cc1 [Compound I132]

IC50 [µM]	Compound
0.801 to 5	Fc1cccc(-c2cc(NCCCN3CCCCC3)c3ccccc3n2)n1 [Compound I97]
0.801 to 5	COc1ccc(-c2cc(NCCCN3CCCCC3)c3ccccc3n2)cn1 [Compound I156]
0.801 to 5	COc1ccc(-c2cc(Nc3cccc(CC4CCN(S(C)(=O)=O)CC4)c3)c3ccccc3n2)cc1 [Compound I28, 4-[(3-{[2-(4-methoxyphenyl)(4-quinolyl)]amino}phenyl)methyl]-1-(methylsulfonyl)piperidine]
0.801 to 5	(3-piperidylpropyl)[2-(3,4,5-trifluorophenyl)(4-quinolyl)]amine [Compound I127]
0.2 to 0.8	O=C(c1ccc(-c2cc(NCCCN3CCCCC3)c3ccccc3n2)cc1)N1CCNCC1 [Compound I193, piperazinyl 4-{4-[(3-piperidylpropyl)amino](2-quinolyl)}phenyl ketone]
> 5	CN(C)CCc1ccc(Nc2cc(-c3ccc(C(N)=O)cc3)nc3ccccc23)cc1 [Compound I217, 4-[4-({4-[2-(dimethylamino)ethyl]phenyl}amino)-2-quinolyl]benzamide]
0.801 to 5	COc1ccc(-c2cc(NCCc3ccc(C(F)(F)F)cc3)c3ccccc3n2)cc1 [Compound G86, [2-(4-methoxyphenyl)(4-quinolyl)]{2-[4-(trifluoromethyl)phenyl]ethyl}amine]
0.801 to 5	COc1ccc(-c2cc(Nc3ccc(C(F)(F)F)cc3)c3ccccc3n2)cc1 [Compound G42, [2-(4-methoxyphenyl)(4-quinolyl)][4-(trifluoromethyl)phenyl]amine]
> 5	NC(=O)c1ccc(-c2cc(NCc3ccc(CN4CCCCC4)cc3)c3ccccc3n2)cc1 [Compound I213, 4-[4-({[4-(piperidylmethyl)phenyl]methyl}amino)-2-quinolyl]benzamide]
0.801 to 5	N#Cc1ccccc1-c1cc(Nc2cccc(CN3CCCC3)c2)c2ccccc2n1 [Compound I2, 2-(4-{[3-(pyrrolidinylmethyl)phenyl]amino}-2-quinolyl)benzenecarbonitrile]
0.801 to 5	COc1ccc(OC)c(-c2cc(NCCCN3CCCCC3)c3ccccc3n2)c1 [Compound I173]
> 5	FC(F)(F)c1cc(-c2cc(Nc3cccc(CN4CCCC4)c3)c3ccccc3n2)cc(C(F)(F)F)c1 [Compound I44, {2-[3,5-bis(trifluoromethyl)phenyl](4-quinolyl)}[3-(pyrrolidinylmethyl)phenyl]amine]
0.2 to 0.8	O=C(NCC1CCNCC1)c1ccc(-c2cc(NCCCN3CCCCC3)c3ccccc3n2)cc1 [Compound I197]
0.801 to 5	COc1ccc(-c2cc(NCCc3ccc(F)cc3)c3ccccc3n2)cc1 [Compound G87, [2-(4-fluorophenyl)ethyl][2-(4-methoxyphenyl)(4-quinolyl)]amine]
0.801 to 5	c1coc(-c2cc(NCCCN3CCCCC3)c3ccccc3n2)c1 [Compound G12, (2-Furan-2-yl-quinolin-4-yl)-(3-piperidin-1-yl-propyl)-amine]
0.801 to 5	Fc1cccc(-c2cc(NCCCC3CCCNC3)c3ccccc3n2)c1 (centres unmarked) [Compound I162, [2-(3-fluorophenyl)(4-quinolyl)](3-piperidylpropyl)amine]
0.801 to 5	Clc1ncccc1-c1cc(NCCCN2CCCCC2)c2ccccc2n1 [Compound I99]
0.801 to 5	COc1ccc(-c2cc(Nc3ccc(OC(C)C)cc3)c3ccccc3n2)cc1 [Compound G44, [2-(4-methoxyphenyl)(4-quinolyl)][4-(methylethoxy)phenyl]amine]
0.801 to 5	COc1ccc(-c2cc(Nc3ncccn3)c3ccccc3n2)cc1 [Compound G72, [2-(4-methoxyphenyl)(4-quinolyl)]pyrimidin-2-ylamine]
0.801 to 5	COc1ccc(-c2cc(Nc3cccc(CN(C)C)c3)c3ccccc3n2)cc1 [Compound I39, [(3-{[2-(4-methoxyphenyl)(4-quinolyl)]amino}phenyl)methyl]dimethylamine]

Compound	IC50 [µM]
COc1ccc(-c2cc(Nc3cccnc3)c3ccccc3n2)cc1 [Compound G64]	0.801 to 5

— US10626094B2 (La Jolla Institute of Allergy & Immunology, priority 2014, dated 2020)
